Experimental data as given in ChEMBL document CHEMBL1949518, “Synthesis and biological evaluation of some new 2-pyrazolines bearing benzene sulfonamide moiety as potential anti-inflammatory and anti-cancer agents” (Eur J Med Chem, 2011).

Columns and labels:
Rattus norvegicus [1] = assay: Antiinflammatory activity in Wistar rat assessed as inhibition of carrageenan-induced paw edema at 20 mg/kg, po administered 30 mins before carrageenan challenge measured after 5 hrs; type: functional
Rattus norvegicus [2] = assay: Antiinflammatory activity in Wistar rat assessed as inhibition of carrageenan-induced paw edema at 20 mg/kg, po administered 30 mins before carrageenan challenge measured after 3 hrs; type: functional
Mus musculus [3] = assay: Toxicity in Swiss albino mouse assessed as behavioral change at 100 mg/kg, po measured up to 24 hrs; type: organism-based; set-up: dose 100 mg/kg, route oral; settings: in vivo
Rattus norvegicus [4] = assay: Ulcerogenic activity in fasted Wistar albino rat at 60 mg/kg, po administered as 3 dose measured after 6 hrs post last dose; type: toxicity, organism-based; set-up: dose 60 mg/kg, route oral; settings: in vivo
[5] = molecular target: Prostaglandin G/H synthase 1 (Bos taurus, UniProt O62664); assay: Inhibition of bovine COX1 assessed as PGE2 formation preincubated for 10 mins by ELISA
Prostaglandin G/H synthase 1, sequence (O62664 whole entry): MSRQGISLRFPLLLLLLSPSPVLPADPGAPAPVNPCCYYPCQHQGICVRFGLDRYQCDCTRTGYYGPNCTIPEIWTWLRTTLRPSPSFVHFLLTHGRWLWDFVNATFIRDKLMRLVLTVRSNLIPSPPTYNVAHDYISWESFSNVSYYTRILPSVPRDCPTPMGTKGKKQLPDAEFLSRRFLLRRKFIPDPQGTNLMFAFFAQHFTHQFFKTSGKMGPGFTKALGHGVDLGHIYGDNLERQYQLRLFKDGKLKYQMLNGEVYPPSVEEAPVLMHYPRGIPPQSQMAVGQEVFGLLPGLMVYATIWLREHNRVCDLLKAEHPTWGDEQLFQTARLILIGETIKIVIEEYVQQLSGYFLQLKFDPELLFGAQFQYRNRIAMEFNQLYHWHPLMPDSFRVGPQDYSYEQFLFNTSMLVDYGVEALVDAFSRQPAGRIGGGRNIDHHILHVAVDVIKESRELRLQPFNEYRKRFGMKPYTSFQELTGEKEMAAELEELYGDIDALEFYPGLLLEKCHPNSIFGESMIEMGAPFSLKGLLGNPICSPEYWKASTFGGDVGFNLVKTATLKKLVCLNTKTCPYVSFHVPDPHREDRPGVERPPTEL

Mus musculus [6] = assay: Toxicity in Swiss albino mouse assessed as mortality at 100 mg/kg, po measured up to 24 hrs; type: organism-based; set-up: dose 100 mg/kg, route oral; settings: in vivo

| SMILES | inhibition in vivo at 20 mg/kg (Rattus norvegicus [1]) [%] | inhibition in vivo at 20 mg/kg (Rattus norvegicus [2]) [%] | Activity (Mus musculus [3]) | Activity (Rattus norvegicus [4]) | IC50 [5] [µM] | Activity (Mus musculus [6]) |
| --- | --- | --- | --- | --- | --- | --- |
| Cc1cc(O)c(C2=NN(c3ccc(S(N)(=O)=O)cc3)C(c3ccccc3)C2)c(C)c1Cl (stereo unspecified) | 36.4 | 20 | – | – | – | – |
| Cc1cc(O)c(C2=NN(c3ccc(S(N)(=O)=O)cc3)C(c3ccccc3Cl)C2)c(C)c1Cl (stereo unspecified) | 45.5 | 53 | – | – | – | – |
| Cc1cc(O)c(C2=NN(c3ccc(S(N)(=O)=O)cc3)C(c3ccccc3O)C2)c(C)c1Cl (stereo unspecified) | 75 | 79 | Non-toxic | Non-toxic | 65.4 | Non-toxic |
| COc1cc(C2CC(c3c(O)cc(C)c(Cl)c3C)=NN2c2ccc(S(N)(=O)=O)cc2)cc(OC)c1OC (stereo unspecified) | 75 | 68.4 | – | – | – | – |
| COc1ccc(C2CC(c3c(O)cc(C)c(Cl)c3C)=NN2c2ccc(S(N)(=O)=O)cc2)cc1OC (stereo unspecified) | 45.5 | 26.7 | – | – | – | – |
| Cc1ccc(-c2cc(C(F)(F)F)nn2-c2ccc(S(N)(=O)=O)cc2)cc1 [CELECOXIB] | 82 | 79.6 | – | – | – | – |
